Results reported in patent publication US9393288B2, “Methods of treating diseases associated with PPARγ” (The University of Vermont and State Agricultural College, priority 2012, dated 2016).

How the values were obtained:
Format in all cases: in vivo, rat
[1] = test system: brain capillaries; assay: Brain capillary density (von Willebrand factor immunohistochemistry, capillary counting) in SHR; details: relaxin-treated SHR vs WKY and untreated SHR
[2] = test system: VEGF; assay: VEGF expression in brain cortex (immunohistochemistry and qPCR), SHR; details: SHR-F-Rln vs SHR-F
Method: After dissecting PA and MCA for isolated vessel experiments, the remaining MCA, PA, and brain cortex from the MCA territory of 4-6 rats were collected and stored at −80° C. in RNase inhibitor (1 unit/μl, RiboLock, Fermentas, Glen Burnie, Md., USA) to determine mRNA expression levels of target genes using real-time qPCR methods. Target genes were assessed using Assays on Demand from Applied Biosystems. […] All primers were designed across an exon-exon junction to avoid detecting genomic DNA, so no DNase treatment was required. Housekeeping gene β-actin was used in all qPCR experiments as a control. Standard techniques for real-time qPCR were performed by the Vermont Cancer Center DNA analysis facility at the University of Vermont, as described previously (Cipolla, M. J., Smith, J., Kohlmeyer, M. M., and Godfrey, J. A. (2009) SKCa and IKCa Channels, myogenic tone, and vasodilator responses in middle cerebral arteries and parenchymal arterioles: effect of ischemia and reperfusion. Stroke 40, 1451-1457).
To investigate the mechanisms by which relaxin causes selectively remodeling of PA, mRNA expression of VEGF, MMP-2, and MMP-9 were compared between MCA, PA, brain cortex. To determine if relaxin activates peroxisome proliferator-activated receptor-gamma (PPARγ), expression levels of PPARγ target genes fatty acid binding protein-4 (FABP4) and plasminogen activator inhibitor-1 (PAI-1) were determined in mesenteric adipose tissue. Expression levels of PPARγ and its target genes PAI-1 and liver X receptors-α (LXR-α) were also determined in brain cortex (Chan, S. L., and Cipolla, M. J. (2012) Determination of PPARgamma activity in adipose tissue and spleen. J Immunoassay Immunochem 33, 314-324).
Brain cortex from the MCA region from WKY-F, SHR-F and SHR-F-Rln groups was collected and fixed in 4% formaldehyde for 48 hours at 4° C. and embedded in paraffin. Brain cortex was cut into 5 μm sections. […] Staining intensity was assessed using a semi-quantitative scoring system from 0 (lowest staining intensity) to 5 (highest staining intensity) in a blinded fashion. […]

[3] = test system: middle cerebral arteries (MCA); assay: Pressurized arteriograph: structure of MCA from female SHR; details: SHR-F-Rln vs untreated SHR-F
Method: A separate group of SHR-F was used to determine if relaxin crosses the BBB by treating with relaxin (4 μg/hr) for 14 days and measuring relaxin concentration in cerebrospinal fluid (CSF) and serum (SHR-F-Rln-CSF, n=4). For the osmotic pump implant, animals were anesthetized with 3% isoflurane and minipumps implanted subcutaneously in the back of the neck. All animals received post-surgical analgesia (buprenorphine, 50 μg/kg, s.c.). Relaxin infusion was continuous for 14 days until animals were euthanized for isolated vessel experiments and tissue collection.
After collecting trunk blood, the brain was quickly removed and placed in cold physiological salt solution (PSS). […] Temperature and pH were continuously measured and maintained at 37.0±0.5° C. and 7.40±0.05, respectively. […]
PA and MCA were equilibrated for 1 hour, after which myogenic activity was determined by stepwise increases in pressure from 40 to 100 mmHg for PA or 50 to 175 mmHg for MCA. ID and WT were measured at each pressure once stable. […] To obtain structural measurements, ID and WT were recorded at pressures between 5 to 200 mmHg for PA or 5 to 175 mmHg for MCA in zero-calcium PSS containing ethylene glycol tetra-acetic acid (EGTA) and outer diameter (OD) and distensibility calculated.
Percent tone was calculated as percent decrease in ID from the passive diameter at each intravascular pressure: [1−(IDactive/IDpassive)]×100. […]

## relaxin
[1]
  Number of capillaries in the brain (capillary density): significant increase
[2]
  VEGF mRNA expression in brain cortex: increased
[2]; p<0.05
  VEGF immunoreactivity (staining intensity) in brain cortex: significantly increased
[2]; listed as Relaxin
  VEGF mRNA expression in brain cortex: significantly increased
[3]
  Structure of MCA (passive ID, WT, distensibility): no effect
